# Measured values from PubChem BioAssay (NCI).
# “And” between values parts separate entries of the source, which are not always exact repeats. Equal entries are not always repeated.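 Briefly, cells in 96-well plates were exposed to five compound concentrations for 48 h, and endpoints were estimated by linear interpolation. GI50 marks 50% less growth. TGI: total growth inhibition.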
# Columns and labels:
# Test in all cases: inhibition of tumour cell growth, NCI panel, 48 h
# UACC-62 melanoma = system: UACC-62 melanoma
# ACHN renal = system: ACHN renal
# LOX IMVI melanoma = system: LOX IMVI melanoma
# TK-10 renal = system: TK-10 renal
# M14 melanoma = system: M14 melanoma
# DU-145 prostate = system: DU-145 prostate
# RXF 393 renal = system: RXF 393 renal
# SNB-75 CNS = system: SNB-75 CNS
# DLD-1 colon = system: DLD-1 colon
# DMS 273 small cell lung = system: DMS 273 small cell lung
Structure (SMILES),GI50 (UACC-62 melanoma),TGI (UACC-62 melanoma),GI50 (ACHN renal) [µM],TGI (ACHN renal),GI50 (LOX IMVI melanoma) [µM],TGI (LOX IMVI melanoma),GI50 (TK-10 renal) [µM],TGI (TK-10 renal),GI50 (M14 melanoma) [µM],TGI (M14 melanoma),GI50 (DU-145 prostate) [µM],TGI (DU-145 prostate),GI50 (RXF 393 renal) [µM],TGI (RXF 393 renal),GI50 (SNB-75 CNS),TGI (SNB-75 CNS),TGI (DLD-1 colon) [µM],TGI (DMS 273 small cell lung) [µM]
CSc1ccc(SC2c3ccc(C)cc3Oc3nc(N)c(C#N)c(N)c32)cc1 (centres undefined),1.61 µM,2.97 µM,1.61,2.96 µM,1.51,2.92 µM,1.96,3.37 µM,1.86,3.64 µM,1.85,3.26 µM,1.71,3.12 µM,2.2 µM,7.34 µM,–,–
CCNNC(=O)[C@@H]1[C@H](c2cc(OC)c(OC)c(OC)c2)c2cc3c(cc2[C@H](O)[C@H]1CO)OCO3,0.398 µM,> 100 µM,0.755,> 100 µM,0.357,> 100 µM,30.8,> 100 µM,0.369,> 100 µM,0.537,> 100 µM,0.34,> 100 µM,0.442 µM,> 100 µM,–,–
CCOC(=O)N1C(c2ccccc2)C=CC(c2ccccc2)N1C(=O)OCC (centres undefined),–,> 100 µM,–,> 100 µM,–,> 100 µM,–,> 100 µM,–,–,–,–,–,> 100 µM,–,> 100 µM,> 100,–
Cc1nc2c(N3CCCC3)nc(N3CCNCC3)nc2nc1NCc1ccccc1,6.15 µM,12.7 µM and 7.58 µM,2.69,7.54 µM and 16.5 µM,2.47,16.8 µM and 3.19 µM,–,11.8 µM and 17.6 µM,2.64,9.12 µM and 3.53 µM,5.35,19.4 µM and 21.3 µM,4.81,11 µM and 2.66 µM,1.85 µM,4.11 µM and 4.69 µM,–,–
CC(C)C[C@H](NC(=O)[C@@H](NC(=O)c1cccc(-c2ccccc2)n1)[C@@H](C)O)B(O)O,0.00558 µM and < 0.0111 µM,0.0311 µM and 0.0412 µM,0.00408,> 11.1 µM,0.00473,0.0181 µM and 0.0119 µM,0.00352,0.0592 µM and < 0.0273 µM,–,0.0207 µM,0.0077,1.81 µM,0.00414,0.0151 µM and < 0.0119 µM,0.0144 µM and 0.0105 µM,0.0454 µM and 0.0308 µM,–,–
CS(=O)(=O)N(CCC#N)c1ccc(C=O)cc1,–,> 100 µM,–,> 100 µM,–,> 100 µM,–,–,–,> 100 µM,–,–,–,–,–,> 100 µM,–,> 100
COc1cc(C2CC(=O)Nc3c2ccc2ccccc32)cc(Br)c1OC (centres undefined),0.54 µM,–,0.798,> 100 µM,0.452,> 33.5 µM,13.4,> 100 µM,0.308,2.7 µM,0.653,> 38.2 µM,0.78,7.05 µM,0.224 µM,2.43 µM,–,–
Cc1cnccc1N=Nc1ccc(N(C)C)cc1,–,40.7 µM,–,> 100 µM,–,53.9 µM,–,50.9 µM,–,> 100 µM,–,> 100 µM,–,53 µM,–,46.2 µM,–,–
Cc1cc(C)c(S(=O)(=O)N(CCc2cccc(Br)c2)Cc2ccc(-c3cccc(S(C)(=O)=O)c3)cc2)c(C)c1,> 100 µM,> 100 µM,> 100,> 100 µM,> 100,> 100 µM,> 100,> 100 µM,> 100,> 100 µM,> 100,> 100 µM,> 100,> 100 µM,> 100 µM,> 100 µM,–,–
